Measurements taken from paper PMC12143354, “Determining sex differences in aortic valve myofibroblast responses to drug combinations identified using a digital medicine platform” (Science Advances, 2025).
Like-named read-outs stand apart in the source and are kept apart here.

Legend:
[1] = system: male VICs; assay: percent αSMA GMI reduction by immunofluorescent staining, male VICs on TCPS; type: cell-based, pig; details: for sex difference in efficacy (male versus female EC20) / Percent αSMA reduction, Average: TCPS; for sex difference in efficacy (male versus female EC20): unpaired two-tailed t test, P < 0.05; for reduction in αSMA GMI, initial screen: male VICs on TCPS, dosing range 10^-7 to 10^3 μM; for Percent αSMA reduction, Average: male VICs, n = 3 wells
Experimental: (§1) VICs were collected by aspirating off spent media, washing with PBS (Sigma-Aldrich) for 1 min, then incubating with 1× trypsin (Life Technologies) for 3 min. Trypsin was neutralized with an equal volume of 15% FBS growth media and centrifuged for 5 min at 0.2g. The media solution was then aspirated, and VICs were resuspended with 1 ml of 1% FBS media. VICs were counted with an automated hemocytometer to calculate the volume of cell solution to add to each well to seed at 6400 cells per well (20,000 cells/cm^2) for TCPS and hydrogel experiments. […] For each inhibitor, the nonlinear regression tool in Prism was used to estimate the response against the agonist by fitting the top, bottom, EC50/CC50, and hillslope to each dataset.

[2] = system: female VICs; assay: percent αSMA GMI reduction, female VICs on soft hydrogels; type: cell-based, pig; details: n = 3 gels
Excerpt: (§2) Last, we tested the ability of […]-designed combinations to prevent myofibroblast activation in VICs cultured on other substrates beyond stiff hydrogels. […] Six male-optimized combinations were effective in preventing male VIC myofibroblast activation (Fig. 7K). […] Single-drug monotherapies used in the top male and female drug combinations were confirmed to have a minimal effect on male and female VIC αSMA GMI on soft hydrogels (table S14). […] After aspirating off the spent media, VICs were resuspended in 5 ml of fresh 15% FBS media and seeded on T25 Falcon tissue culture-treated flasks (Thermo Fisher Scientific). […] VICs were collected by aspirating off spent media, washing with PBS (Sigma-Aldrich) for 1 min, then incubating with 1× trypsin (Life Technologies) for 3 min. Trypsin was neutralized with an equal volume of 15% FBS growth media and centrifuged for 5 min at 0.2g. The media solution was then aspirated, and VICs were resuspended with 1 ml of 1% FBS media. VICs were counted with an automated hemocytometer to calculate the volume of cell solution to add to each well to seed at 6400 cells per well (20,000 cells/cm^2) for TCPS and hydrogel experiments. […] For each inhibitor, the nonlinear regression tool in Prism was used to estimate the response against the agonist by fitting the top, bottom, EC50/CC50, and hillslope to each dataset.

[3] = system: female VICs; assay: percent αSMA GMI reduction by immunofluorescent staining, female VICs on TCPS; type: cell-based, pig; details: for reduction in αSMA GMI, initial screen: female VICs on TCPS, dosing range 10^-7 to 10^3 μM; for Percent αSMA reduction, Average: female VICs, TCPS, n = 3 wells
Experimental: as §1

[4] = system: female VICs; assay: percent αSMA GMI reduction, female VICs on stiff hydrogels; type: cell-based, pig; details: for EC1 / EC2: from dose response curves; for Percent αSMA reduction, Average: n = 3-4 gels
Experimental: (§3) Glass-bottom 96-well plates (Cellvis) were placed in an autoclave jar with a scintillation vial containing 100 μl of mercaptopropyltrimethoxysilane (MPTS; Sigma-Aldrich). The autoclave jar was then lightly sealed and placed inside an oven at 60°C for a minimum of 6 hours. The autoclave jar was opened in a chemical fume hood, and the vapor-deposited well plate was stored for up to 2 hours until ready for use. Eight-arm 20-kDa PEG-norbornene (PEG-Nb) was formed as outlined previously ([76]). A 7% (w/v) PEG-Nb hydrogel precursor solution was formed by combining phosphate-buffered saline (PBS), 20-kDa PEG-Nb at a 0.98:1 thiol-to-ene ratio, 5-kDa PEG-dithiol (Jenkem), CRGDS cell binding motif (Bachem), and lithium phenyl-2,4,6-trimethyl-benzoylphosphinate (Thermo Fisher Scientific). An EPMotion 5073l automated liquid handling system (Eppendorf) was used to pipet 7 μl of the hydrogel precursor solution into the center of each well of the vapor-deposited 96-well glass-bottom plate. The well plate with the hydrogel precursor solution was then stamped using a custom 96-well plate stamp, inverted, and cured under ultraviolet light at 10 mW/cm^2 for 3 min to induce gelation. The stamp was carefully removed by hand, and the newly formed gels were sterilized with a solution of 5% isopropyl alcohol (Thermo Fisher Scientific) in PBS for 20 min. Gels were then washed twice with PBS and stored in VIC media composed of Media199 (Life Technologies), 1% fetal bovine serum (FBS, Life Technologies), amphotericin B (1 μg/ml; Thermo Fisher Scientific), penicillin (50 U/ml; Sigma-Aldrich), and streptomycin (50 μg/ml; Sigma-Aldrich). Last, the hydrogels were placed in an incubator at 37°C with 5% carbon dioxide for up to 24 hours until experimental use.
(§4) Media changes were performed every 24 to 48 hours until cells reached ~80% confluency. […] The media solution was then aspirated, and VICs were resuspended with 1 ml of 1% FBS media. VICs were counted with an automated hemocytometer to calculate the volume of cell solution to add to each well to seed at 6400 cells per well (20,000 cells/cm^2) for TCPS and hydrogel experiments. For all experiments, VICs were seeded with 1% FBS media containing the specified drug doses and incubated at 37°C with 5% carbon dioxide with media changes every 48 to 72 hours if needed.
(§5) Drug stock solutions were discarded after two thaw cycles or after 10 months of storage. For all experiments, drug dilutions were calculated and added to VIC media to ensure that total DMSO levels remained below 1% for cytotoxicity and αSMA reduction curve fitting experiments and below 0.3% for drug combination experiments.
(§6) After culture on hydrogels or TCPS, the spent drug-containing media were removed, and VICs were immersed in a 4% paraformaldehyde solution in PBS for 20 min and then permeabilized for 1 hour with 0.1% Triton X-100 (Thermo Fisher Scientific) in PBS. Cells were then blocked with 5% bovine serum albumin in PBS for 1 hour at room temperature or over the weekend at 4°C. […] Last, VICs were washed once with PBS and then stored in PBS at 4°C until imaging. Gel samples were imaged in situ using a Nikon Eclipse Ti2-E and analyzed using an automated MATLAB code to quantify the αSMA gradient mean intensities and caspase-3 intensities normalized to cell mask for each cell. A minimum of 100 cells were used per gel with multiple gels used per condition.
(§7) Curve fitting for VIC percent αSMA reduction and cytotoxicity was performed using GraphPad Prism 10 (GraphPad Software Inc). For each inhibitor, the nonlinear regression tool in Prism was used to estimate the response against the agonist by fitting the top, bottom, EC50/CC50, and hillslope to each dataset. After 2 days of culture, the percent αSMA reduction was calculated using the average αSMA gradient mean intensities of the control relative to the drug condition using Eq. 1 %αSMA reduction=100×(Control−Drug Condition/Control) (1)

[5] = system: male VICs; assay: percent αSMA GMI reduction, male VICs on stiff hydrogels; type: cell-based, pig; details: for EC1 / EC2 / Percent αSMA reduction, Average: male VICs; for EC1 / EC2: from dose response curves; for Percent αSMA reduction, Average: n = 3-4 gels
Experimental: as §3, §4, §5, §6, §7

[6] = system: female VICs
Experimental: as §6
(§8) Percent cytotoxicity was determined by designating each cell as alive or dead using caspase-3 intensity normalized to cell mask intensity, which was thresholded using a positive and negative control for cell death [10 nM staurosporine (Cell Signaling Technologies) or 1% FBS media]. The bottom value for every curve fit was set to 0, and the top value was constrained to a maximum of 100 to indicate the maximum possible effect of the drug. […] Absolute EC and CC values for % αSMA reduction and percent cytotoxicity were quantified using the top, bottom, EC50/CC50, and hillslope values estimated from the curve fits generated in GraphPad Prism (GraphPad Software Inc).

[7] = system: male VICs
Experimental: as §6, §8

[8] = system: male VICs; assay: percent αSMA GMI reduction, male VICs on soft hydrogels; type: cell-based, pig; details: n = 3 gels
Excerpt: as §2

[9] = female VICs, stiff hydrogels, from dose response curves
[10] = male VICs, stiff hydrogels, from dose response curves

Row | Structure (SMILES) | sex difference in efficacy (male versus female EC20) [1] | reduction in αSMA GMI, initial screen [1] [%] | Percent αSMA reduction, Average ([1]; single drug at L2 dose) [%] | Percent αSMA reduction, Average ([2]; single drug at L2 dose) [%] | reduction in αSMA GMI, initial screen [3] [%] | Percent αSMA reduction, Average ([3]; single drug at L2 dose) [%] | EC1 [4] [µM] | EC2 [4] [µM] | Percent αSMA reduction, Average ([4]; single drug at level 1 dose) [%] | Percent αSMA reduction, Average ([4]; single drug at level 2 dose) [%] | EC1 [5] [µM] | EC2 [5] [µM] | Percent αSMA reduction, Average ([5]; single drug at level 1 dose) [%] | Percent αSMA reduction, Average ([5]; single drug at level 2 dose) [%] | CC1 ([6]; female, pig) [µM] | CC2 ([6]; female, pig) [µM] | CC25 (percent cytotoxicity) ([6]; female, pig) [µM] | CC1 ([7]; male, pig) [µM] | CC2 ([7]; male, pig) [µM] | CC25 (percent cytotoxicity) ([7]; male, pig) | further results
1 | CCCCc1nc(Cl)c(CO)n1Cc1ccc(-c2ccccc2-c2nn[nH]n2)cc1 [Losartan] | significantly more effective in male VICs relative to female VICs | > 25 | -1.33 | 2.73 | > 25 | 1.39 | 154 | 219 | 7.00 | 2.37 | 18.7 | 32.9 | 5.58 | 0.99 | 11.1 | 27 | 927 | 378 | 470 | 1,123 uM | sex difference in efficacy (male versus female EC20) ([5]; unpaired two-tailed t test, P < 0.05): reducing αSMA GMI more in male VICs relative to female VICs; Percent αSMA reduction, Average ([8]; single drug at L2 dose): 0.81%
2 | C[C@@H](N)[C@H]1CC[C@H](C(=O)Nc2ccncc2)CC1 [Combination Y-27632] | significantly more effective in male VICs relative to female VICs | > 25 |  | 8.24 | > 25 | -2.07 | 1.31 | 2.81 | 28.93 | 22.12 | 0.558 | 1.34 | 0.24 | 2.37 |  |  |  |  |  |  | Percent αSMA reduction, Average ([1]; single drug at L1 dose): 6.48%; Percent αSMA reduction, Average ([2]; single drug at L1 dose): 3.22%; Percent αSMA reduction, Average ([3]; single drug at L1 dose): 0.37%; CC1 [6]: 27.5 µM; CC2 [6]: 37.9 µM; CC25 (percent cytotoxicity) [6]: 135 µM; CC1 [7]: 10.8 µM; CC2 [7]: 19.9 µM; CC25 (percent cytotoxicity) [7]: 224 µM; Percent αSMA reduction, Average ([8]; single drug at L1 dose): -2.58%
3 | Cc1cncc2cccc(S(=O)(=O)N3CCCNC[C@@H]3C)c12 [Combination H1152] |  | > 25 | -0.09 | 3.37 | > 25 | 2.30 | 0.0765 | 0.198 | 8.04 | 12.39 | 1.96 | 2.82 | -5.03 | 0.66 |  |  |  |  |  |  | CC25 (percent cytotoxicity) ([6]; female VICs on stiff gels, n = 3 gels): 72.6 µM; CC1 [6, 9]: 0.26 µM; CC2 [6, 9]: 0.806 µM; CC25 (percent cytotoxicity) ([7]; male VICs on stiff gels, n = 3 gels): 6.27 µM; CC1 [7, 10]: 0.162 µM; CC2 [7, 10]: 0.28 µM; Percent αSMA reduction, Average ([8]; single drug at L2 dose): -5.04%
4 | C[S+]([O-])c1ccc(-c2nc(-c3ccncc3)c(-c3ccc(F)cc3)[nH]2)cc1 (stereo not drawn) [SB203580] |  | > 25 |  |  | > 25 |  | 7.56 | 14.5 | 2.35 | -6.55 | 24.8 | 40.8 | 5.45 | 3.67 | 29.8 | 48.9 | 874 | 0.413 | 2.18 | 1,613 uM | 
